In patent US8946215B2, “Hydroxy-substituted imidazo[1,2-a]pyridinecarboxamides and their use” (Bayer Pharma Aktiengesellschaft, priority 2012, dated 2015):
Where a name gives a salt, the structure may show the parent alone.

Biological target: T1, recombinant guanylate cyclase reporter cell line (Rattus norvegicus, UniProt P19686+P20595)
T1 construct: expressed in transfected cells
T1 sequence (P20595 1-619): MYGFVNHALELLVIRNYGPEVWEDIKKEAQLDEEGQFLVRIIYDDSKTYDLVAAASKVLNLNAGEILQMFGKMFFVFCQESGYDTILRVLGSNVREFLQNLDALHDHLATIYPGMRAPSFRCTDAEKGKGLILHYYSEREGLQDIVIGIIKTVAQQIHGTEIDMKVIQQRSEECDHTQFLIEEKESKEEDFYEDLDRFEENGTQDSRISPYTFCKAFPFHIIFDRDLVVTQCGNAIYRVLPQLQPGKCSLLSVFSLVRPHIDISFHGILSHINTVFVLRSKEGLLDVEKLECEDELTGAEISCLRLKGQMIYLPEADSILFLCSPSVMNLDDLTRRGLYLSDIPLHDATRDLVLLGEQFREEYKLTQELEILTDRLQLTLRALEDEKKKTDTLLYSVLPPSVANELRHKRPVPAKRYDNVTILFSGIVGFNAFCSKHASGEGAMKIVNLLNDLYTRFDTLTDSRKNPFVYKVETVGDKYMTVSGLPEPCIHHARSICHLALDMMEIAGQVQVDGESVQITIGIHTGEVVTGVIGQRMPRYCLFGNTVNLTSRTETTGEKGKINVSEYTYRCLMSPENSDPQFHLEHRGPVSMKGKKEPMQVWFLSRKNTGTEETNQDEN
T1 sequence (P19686 1-690): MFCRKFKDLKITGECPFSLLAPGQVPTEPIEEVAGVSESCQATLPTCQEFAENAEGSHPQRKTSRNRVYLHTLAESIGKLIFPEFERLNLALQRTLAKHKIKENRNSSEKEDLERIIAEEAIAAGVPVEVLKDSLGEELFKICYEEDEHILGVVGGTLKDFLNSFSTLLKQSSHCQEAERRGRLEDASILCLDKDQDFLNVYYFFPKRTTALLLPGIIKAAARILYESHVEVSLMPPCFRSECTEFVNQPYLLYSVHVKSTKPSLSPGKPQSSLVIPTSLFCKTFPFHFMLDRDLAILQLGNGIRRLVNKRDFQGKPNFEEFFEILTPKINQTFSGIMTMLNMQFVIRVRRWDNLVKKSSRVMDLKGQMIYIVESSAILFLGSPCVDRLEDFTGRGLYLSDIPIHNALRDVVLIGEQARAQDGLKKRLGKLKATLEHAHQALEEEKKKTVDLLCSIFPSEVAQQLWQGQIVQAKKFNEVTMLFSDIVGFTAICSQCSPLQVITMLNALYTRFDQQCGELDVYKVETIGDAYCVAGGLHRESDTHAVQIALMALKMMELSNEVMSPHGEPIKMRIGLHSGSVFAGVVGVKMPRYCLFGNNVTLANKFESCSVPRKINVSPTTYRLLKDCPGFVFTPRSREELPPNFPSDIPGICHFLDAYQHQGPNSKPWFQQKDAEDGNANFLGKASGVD
Assay: Action on recombinant guanylate cyclase reporter cell line
Format: cell-based
Conditions: in some cases mean values obtained from individual determinations
Description: B-2. Action on Recombinant Guanylate Cyclase Reporter Cell Line
The cellular action of the compounds according to the invention is determined on a recombinant guanylate cyclase reporter cell line, as described in F. Wunder et al., Anal. Biochem. 339, 104-112 (2005).
Representative values (MEC=minimal effective concentration) for the compounds according to the invention are shown in the following table (in some cases as mean values obtained from individual determinations): […]

## Cc1nc2c(OCc3c(F)cccc3F)cccn2c1C(=O)NC(CO)COCC(C)C (racemic) [Example 163, rac-8-[(2,6-Difluorobenzyl)oxy]-N-(1-hydroxy-3-isobutoxypropan-2-yl)-2-methylimidazo[1,2-a]-pyridine-3-carboxamide]
  MEC (minimal effective concentration): 1.0 µM

## Cc1cc(OCCC(C(F)(F)F)C(F)(F)F)c2nc(C)c(C(=O)NC(CCCC(F)(F)F)C(C)(C)O)n2c1 (racemic) [Example 170, rac-2,6-Dimethyl-N-(7,7,7-trifluoro-2-hydroxy-2-methylheptan-3-yl)-8-[4,4,4-trifluoro-3-(trifluoromethyl)butoxy]imidazo[1,2-a]pyridine-3-carboxamide]
  MEC (minimal effective concentration): 3.0 µM

## CCC(O)CNC(=O)c1c(C)nc2c(OCCC(C(F)(F)F)C(F)(F)F)cc(C)cn12 (racemic) [Example 174, rac-N-(2-hydroxybutyl)-2,6-dimethyl-8-[4,4,4-trifluoro-3-(trifluoromethyl)butoxy]imidazo[1,2-a]pyridine-3-carboxamide]
  MEC (minimal effective concentration): 3.0 µM

## Cc1cc(OCCC(C(F)(F)F)C(F)(F)F)c2nc(C)c(C(=O)NCC(O)c3ccc(Cl)cc3)n2c1 (racemic) [Example 175, rac-N-[2-(4-chlorophenyl)-2-hydroxyethyl]-2,6-dimethyl-8-[4,4,4-trifluoro-3-(trifluoromethyl)butoxy]imidazo[1,2-a]pyridine-3-carboxamide]
  MEC (minimal effective concentration): 3.0 µM

## Cc1cc(OCC2CC(F)(F)C2)c2nc(C)c(C(=O)NC(CCCC(F)(F)F)C(C)(C)O)n2c1 (racemic) [Example 176, rac-8-[(3,3-Difluorocyclobutyl)methoxy]-2,6-dimethyl-N-(7,7,7-trifluoro-2-hydroxy-2-methylheptan-3-yl)imidazo[1,2-a]pyridine-3-carboxamide]
  MEC (minimal effective concentration): 3.0 µM

## Cc1cc(OCc2ncccc2F)c2nc(C)c(C(=O)NC(CCCC(F)(F)F)C(C)(C)O)n2c1 (racemic) [Example 178, rac-8-[(3-fluoropyridin-2-yl)methoxy]-2,6-dimethyl-N-(7,7,7-trifluoro-2-hydroxy-2-methylheptan-3-yl)imidazo[1,2-a]pyridine-3-carboxamide trifluoroacetate]
  MEC (minimal effective concentration): 1 µM

## Cc1nc2c(OCc3ncccc3F)cccn2c1C(=O)NC(CCCC(F)(F)F)C(C)(C)O (racemic) [Example 179, rac-8-[(3-fluoropyridin-2-yl)methoxy]-2-methyl-N-(7,7,7-trifluoro-2-hydroxy-2-methylheptan-3-yl)imidazo(1,2-a]pyridine-3-carboxamide]
  MEC (minimal effective concentration): 1 µM

## Cc1nc2c(OCc3ncccc3F)cccn2c1C(=O)NC(CC(F)(F)F)C(C)(C)O (racemic) [Example 180, rac-8-[(3-Fluoropyridin-2-yl)methoxy]-2-methyl-N-(1,1,1-trifluoro-4-hydroxy-4-methylpentan-3-yl)imidazo[1,2-a]pyridine-3-carboxamide]
  MEC (minimal effective concentration): 1 µM

## Cc1cc(OCc2ncccc2F)c2nc(C)c(C(=O)NC(CC(F)(F)F)C(C)(C)O)n2c1 (racemic) [Example 184, rac-8-[(3-fluoropyridin-2-yl)methoxy]-2,6-dimethyl-N-(1,1,1-trifluoro-4-hydroxy-4-methylpentan-3-yl)imidazo[1,2-a]pyridine-3-carboxamide (racemate)]
  MEC (minimal effective concentration): 1 µM

## Cc1cc(OCc2ncccc2F)c2nc(C)c(C(=O)NC(CCC(F)(F)C(F)(F)F)C(C)(C)O)n2c1 (racemic) [Example 186, rac-8-[(3-fluoropyridin-2-yl)methoxy]-2,6-dimethyl-N-(6,6,7,7,7-pentafluoro-2-hydroxy-2-methylheptan-3-yl)imidazo[1,2-a]pyridine-3-carboxamide (racemate)]
  MEC (minimal effective concentration): 1 µM

## Cc1cc(OCc2ncccc2F)c2nc(C)c(C(=O)NC(CCCC(F)(F)C(F)(F)F)C(C)(C)O)n2c1 (racemic) [Example 190, rac-8-[(3-fluoropyridin-2-yl)methoxy]-2,6-dimethyl-N-(7,7,8,8,8-pentafluor-2-hydroxy-2-methyloctan-3-yl)imidazo[1,2-a]pyridine-3-carboxamide (racemate)]
  MEC (minimal effective concentration): 1 µM

## Cc1cc(OCc2ncccc2F)c2nc(C)c(C(=O)NCC(O)C(F)(F)F)n2c1 (racemic) [Example 197, rac-8-[(3-fluoropyridin-2-yl)methoxy]-2,6-dimethyl-N-(3,3,3-trifluoro-2-hydroxypropyl)imidazo[1,2-a]pyridine-3-carboxamide]
  MEC (minimal effective concentration): 3 µM

## Cc1nc2c(OCC3CCCCC3)cccn2c1C(=O)N[C@@H]1CCC[C@@H]1O (relative stereo) [Example 81, 8-(cyclohexylmethoxy)-N-[cis-2-hydroxycyclopentyl]-2-methylimidazo[1,2-a]-pyridine-3-carboxamide]
  MEC (minimal effective concentration): 0.65 µM

## Cc1nc2c(OCc3c(F)cccc3F)cccn2c1C(=O)NC(CO)CCC(O)C(F)(F)F (single isomer, unassigned) [Example 138, 8-[(2,6-Difluorobenzyl)oxy]-2-methyl-N-(6,6,6-trifluoro-1,5-dihydroxyhexan-2-yl)imidazo[1,2-a]-pyridine-3-carboxamide]
  MEC (minimal effective concentration): 0.1 µM

## CCCCC(NC(=O)c1c(C)nc2c(OCCC(C)C)cc(C)cn12)C(C)(C)O (single isomer, unassigned) [Example 167, ent-N-(2-Hydroxy-2-methylheptan-3-yl)-2,6-dimethyl-8-(3-methylbutoxy)imidazo[1,2-a]pyridine-3-carboxamide]
  MEC (minimal effective concentration): 2.0 µM

## Cc1cc(OCCC(C)C)c2nc(C)c(C(=O)NC(CCCC(F)(F)F)C(C)(C)O)n2c1 (single isomer, unassigned; ent-2) [Example 168, ent-2,6-Dimethyl-8-(3-methylbutoxy)-N-(7,7,7-trifluoro-2-hydroxy-2-methylheptan-3-yl)imidazo-[1,2-a]pyridine-3-carboxamide]
  MEC (minimal effective concentration): 3.0 µM

## Cc1cc(OCc2c(F)ccc(F)c2F)c2nc(C)c(C(=O)NC(CCC(F)(F)C(F)(F)F)C(C)(C)O)n2c1 (single isomer, unassigned; ent-2) [Example 198, ent-2,6-dimethyl-N-(6,6,7,7,7-pentafluoro-2-hydroxy-2-methylheptan-3-yl)-8-[(2,3,6-trifluorobenzyl)oxy]imidazo[1,2-a]pyridine-3-carboxamide]
  MEC (minimal effective concentration): 0.03 µM

## Cc1nc2c(OCc3c(F)cccc3F)cccn2c1C(=O)NC(CO)c1ccc(F)cc1 (single isomer, unassigned; ent-8) [Example 107, ent-8-[(2,6-Difluorobenzyl)oxy]-N-[1-(4-fluorophenyl)-2-hydroxyethyl]-2-methylimidazo[1,2-a]-pyridine-3-carboxamide]
  MEC (minimal effective concentration): 0.1 µM

## Cc1nc2c(OCc3c(F)cccc3F)cccn2c1C(=O)NCC(O)C(F)(F)F (single isomer, unassigned; ent-8) [Example 109, ent-8-[(2,6-Difluorobenzyl)oxy]-2-methyl-N-(3,3,3-trifluoro-2-hydroxypropyl)imidazo[1,2-a]-pyridine-3-carboxamide]
  MEC (minimal effective concentration): 0.1 µM

## Cc1nc2c(OCc3c(F)cccc3F)cccn2c1C(=O)NC(CO)CC(F)(F)F (single isomer, unassigned; ent-8) [Example 121, ent-8-[(2,6-Difluorobenzyl)oxy]-2-methyl-N-(4,4,4-trifluoro-1-hydroxybutan-2-yl)imidazo[1,2-a]-pyridine-3-carboxamide]
  MEC (minimal effective concentration): 0.03 µM

## Cc1nc2c(OCc3c(F)cccc3F)cccn2c1C(=O)NC(CO)CCC(F)(F)F (single isomer, unassigned; ent-8) [Example 122, ent-8-[(2,6-Difluorobenzyl)oxy]-2-methyl-N-(5,5,5-trifluoro-1-hydroxypentan-2-yl)imidazo[1,2-a]-pyridine-3-carboxamide]
  MEC (minimal effective concentration): 0.03 µM
